Results: patent US20030215462A1, “Use of UGT inhibitors to increase bioavailability” (priority 2001, published 2003)

Key:
UGT1A9 = molecular target: T1, UGT1A9 (Homo sapiens, UniProt O60656); assay: in vitro
T1 sequence (O60656 26-530): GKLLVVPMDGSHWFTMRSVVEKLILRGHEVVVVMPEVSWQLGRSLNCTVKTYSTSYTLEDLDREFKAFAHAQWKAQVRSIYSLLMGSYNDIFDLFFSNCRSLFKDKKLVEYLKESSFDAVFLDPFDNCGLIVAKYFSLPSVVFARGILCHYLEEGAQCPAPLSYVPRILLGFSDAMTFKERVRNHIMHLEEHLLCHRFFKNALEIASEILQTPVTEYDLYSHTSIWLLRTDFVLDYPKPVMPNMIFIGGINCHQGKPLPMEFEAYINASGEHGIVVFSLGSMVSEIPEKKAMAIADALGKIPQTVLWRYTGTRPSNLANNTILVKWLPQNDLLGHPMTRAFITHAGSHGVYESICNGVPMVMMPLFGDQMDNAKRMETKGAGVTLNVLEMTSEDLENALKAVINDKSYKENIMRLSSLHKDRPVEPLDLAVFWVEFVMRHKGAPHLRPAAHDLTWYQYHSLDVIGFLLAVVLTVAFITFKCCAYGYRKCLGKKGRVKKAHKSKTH
Method: (§2) Compounds were eluted using a binary solvent gradient system. Solvent A was water brought to pH 8 with NH4OH. Solvent B was methanol. Solvent flow rate was 1 ml/min and the column temperature was maintained at 50° C. Detection was at 280 nm. […] The system was then returned to the initial conditions and equilibrated for 3 min.

UGT1A1 = molecular target: T2, UGT1A1 (Homo sapiens, UniProt P22309); assay: in vitro
T2 sequence (P22309 26-533): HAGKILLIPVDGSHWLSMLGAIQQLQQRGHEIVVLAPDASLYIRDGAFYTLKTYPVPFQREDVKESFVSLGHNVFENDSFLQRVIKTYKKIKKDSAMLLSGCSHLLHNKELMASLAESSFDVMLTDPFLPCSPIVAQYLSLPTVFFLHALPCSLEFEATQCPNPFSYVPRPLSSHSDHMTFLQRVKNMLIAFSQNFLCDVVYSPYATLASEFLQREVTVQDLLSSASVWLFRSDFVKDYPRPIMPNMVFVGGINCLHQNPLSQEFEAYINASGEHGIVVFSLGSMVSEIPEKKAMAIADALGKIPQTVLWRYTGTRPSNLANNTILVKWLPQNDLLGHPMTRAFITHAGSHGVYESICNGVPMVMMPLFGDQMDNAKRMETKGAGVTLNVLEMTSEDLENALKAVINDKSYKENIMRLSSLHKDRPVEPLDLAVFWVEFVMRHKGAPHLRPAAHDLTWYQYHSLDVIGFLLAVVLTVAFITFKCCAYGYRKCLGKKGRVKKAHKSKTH
Method: as §2

[1] = tested on: UGT enzymes of pooled human jejunum microsomes; assay: Inhibition of raloxifene glucuronidation (G1, G2) in pooled human jejunum microsomes; type: biochemical; conditions: jejunum HJ61; inhibitor 50 μM
Method: Compounds were eluted using a binary solvent gradient system. […] Solvent B was methanol. […] Detection was at 280 nm.
Standardized incubations utilized […] microsomal protein, 1 mM UDPGA and a 30 min incubation time.

UGT1A10 = molecular target: T3, UGT1A10 (Homo sapiens, UniProt Q9HAW8); assay: in vitro; conditions: pH 7.5, % of control metabolism
T3 sequence (Q9HAW8 26-530): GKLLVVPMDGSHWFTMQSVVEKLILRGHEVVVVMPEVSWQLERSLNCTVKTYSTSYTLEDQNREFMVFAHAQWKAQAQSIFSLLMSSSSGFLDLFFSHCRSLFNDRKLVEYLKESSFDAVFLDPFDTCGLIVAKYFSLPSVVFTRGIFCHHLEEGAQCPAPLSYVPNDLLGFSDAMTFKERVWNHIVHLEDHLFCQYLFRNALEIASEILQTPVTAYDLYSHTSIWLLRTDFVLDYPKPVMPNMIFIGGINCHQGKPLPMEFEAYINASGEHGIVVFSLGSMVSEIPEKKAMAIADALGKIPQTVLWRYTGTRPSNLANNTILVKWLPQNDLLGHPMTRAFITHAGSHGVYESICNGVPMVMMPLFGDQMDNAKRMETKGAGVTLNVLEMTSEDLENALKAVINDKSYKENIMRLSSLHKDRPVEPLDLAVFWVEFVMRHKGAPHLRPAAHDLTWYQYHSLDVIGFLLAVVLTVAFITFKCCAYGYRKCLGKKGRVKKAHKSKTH
Method: as §2

[2] = tested on: UGT enzymes of pooled human jejunum microsomes; assay: Inhibition of 2ME2 glucuronidation (MG1) in pooled human jejunum microsomes; type: biochemical; conditions: jejunum HJ61, 2ME2 50 μM
Text: (§1) Compounds were eluted using a binary solvent gradient system where solvent A was dilute phosphoric acid (pH 3) and solvent B was 80:20 acetonitrile-methanol. […] Detection was at 280 nm.

[3] = tested on: UGT enzymes of pooled human jejunum microsomes; assay: Inhibition of estradiol (E2) glucuronidation in pooled human jejunum microsomes; type: biochemical; conditions: jejunum HJ61, E2 50 μM
Text: as §1

UGT1A8 = molecular target: T4, UGT1A8 (Homo sapiens, UniProt Q9HAW9); assay: Inhibition of raloxifene glucuronidation by recombinant UGT1A8 Supersomes; conditions: for activity at 15 min, 50 µM: human, Supersomes with recombinant human UGT1A8, pH 7.5, probe raloxifene 50 μM
T4 sequence (Q9HAW9 26-530): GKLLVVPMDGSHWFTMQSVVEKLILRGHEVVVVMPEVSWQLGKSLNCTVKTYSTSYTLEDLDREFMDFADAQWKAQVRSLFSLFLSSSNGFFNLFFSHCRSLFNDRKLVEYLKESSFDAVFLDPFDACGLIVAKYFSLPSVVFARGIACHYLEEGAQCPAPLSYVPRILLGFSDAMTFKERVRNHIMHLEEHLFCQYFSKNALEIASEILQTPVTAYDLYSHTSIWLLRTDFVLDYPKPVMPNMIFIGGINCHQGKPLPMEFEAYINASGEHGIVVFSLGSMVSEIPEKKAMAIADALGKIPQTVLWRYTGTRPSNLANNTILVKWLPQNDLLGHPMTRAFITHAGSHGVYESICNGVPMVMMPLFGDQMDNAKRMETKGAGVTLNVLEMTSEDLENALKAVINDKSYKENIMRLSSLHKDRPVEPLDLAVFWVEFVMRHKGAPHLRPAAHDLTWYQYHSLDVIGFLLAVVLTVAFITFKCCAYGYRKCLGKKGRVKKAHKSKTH
Method: as §2

[4] = pH 7.5, % of control metabolism, raloxifene G1
[5] = pH 7.5, % of control metabolism, raloxifene G2
[6] = pH 7.5, Inhibition of raloxifene glucuronidation, G1, UGT1A1
[7] = pH 7.5, Inhibition of raloxifene glucuronidation, G2, UGT1A1
[8] = pH 7.5, Inhibition of raloxifene glucuronidation, UGT1A9, first line per inhibitor (G1)
[9] = pH 7.5, Inhibition of raloxifene glucuronidation, UGT1A9, second line per inhibitor (G2)

| SMILES | activity at 15 min, 50 µM (UGT1A9; [4]) | activity at 15 min, 50 µM (UGT1A9; [5]) | activity at 15 min, 25 µM (UGT1A1; [4]) | activity at 15 min, 50 µM (UGT1A1; [4]) | activity at 15 min, 25 µM (UGT1A1; [5]) | activity at 15 min, 50 µM (UGT1A1; [5]) | activity at 15 min, 25 µM (UGT1A1; [6]) | activity at 15 min, 50 µM (UGT1A1; [6]) | activity at 15 min, 25 µM (UGT1A1; [7]) | activity at 15 min, 50 µM (UGT1A1; [7]) | % of control metabolism, raloxifene G1 [1] | % of control metabolism, raloxifene G2 [1] | activity at 15 min, 50 µM (UGT1A10; raloxifene G1) | activity at 15 min, 50 µM (UGT1A10; raloxifene G2) | residual metabolism (% of control), 2ME2 MG1 ([2]; inhibitor 50 μM) | residual metabolism (% of control), 2ME2 MG1 ([2]; inhibitor 100 μM) | residual metabolism (% of control), 2ME2 MG1 ([2]; inhibitor 25 μM) | residual metabolism (% of control), E2-3-β-D-glucuronide ([3]; inhibitor 50 μM) | residual metabolism (% of control), E2-17-β-D-glucuronide ([3]; inhibitor 50 μM) | further results |
| --- | --- | --- | --- | --- | --- | --- | --- | --- | --- | --- | --- | --- | --- | --- | --- | --- | --- | --- | --- | --- |
| O=C(O)c1cc(-c2ccc(F)cc2F)ccc1O [Diflunisal, reference compound] | 50% | 43% | 53% | 31% | 53% | 33% | 53% | 31% | 53% | 33% | 69 (3) % | 93 (6) % | 90% | 90% | 91 (1) % | 82 (2) % |  |  |  | residual metabolism (% of control), E2-3-β-D-glucuronide ([3]; inhibitor 100 μM): 62 (3), obs % |
| O=C(O[C@@H]1Cc2c(O)cc(O)cc2O[C@@H]1c1cc(O)c(O)c(O)c1)c1cc(O)c(O)c(O)c1 [Epigallocatechin gallate] |  |  |  |  |  |  |  |  |  |  | 38 (2) % | 35 (4) % |  |  | 50 (3) % | 35 (2) % | 66 (2) % | 32 (0) % | 41 (4) % | % of control metabolism, raloxifene G1 (UGT1A8; UGT1A8, inhibitor 50 μM): 69 (3) %; % of control metabolism, raloxifene G2 (UGT1A8; UGT1A8, inhibitor 50 μM): 54 (2) % |
| C=CCc1ccc(O)c(OC)c1 [Eugenol] | 32% | 29% |  |  |  |  |  |  |  |  | 91 (1) % | 96 (5) % | 85% | 81% |  | 104 (4) % |  |  |  | inhibition of raloxifene glucuronidation, in words (UGT1A8; UGT1A8): ineffective; activity at 15 min, 25 µM (UGT1A9; [4]): 56%; activity at 15 min, 25 µM (UGT1A9; [5]): 51%; activity at 15 min, 25 µM (UGT1A9; [8]): 56%; activity at 15 min, 50 µM (UGT1A9; [8]): 32%; activity at 15 min, 25 µM (UGT1A9; [9]): 51%; activity at 15 min, 50 µM (UGT1A9; [9]): 29%; activity at 15 min, 50 µM (UGT1A1; pH 7.5, % of control metabolism, raloxifene G1, UGT1A1, inhibitor 50 μM): 85%; activity at 15 min, 50 µM (UGT1A1; pH 7.5, % of control metabolism, raloxifene G2, UGT1A1, inhibitor 50 μM): 79%; activity at 15 min, 50 µM (UGT1A1; pH 7.5, Inhibition of raloxifene glucuronidation, G1, UGT1A1, G1, inhibitor 50 μM, raloxifene 50 μM, 250 μg/ml Supersomes, 1 mM UDPGA, 15 min): 85%; activity at 15 min, 50 µM (UGT1A1; pH 7.5, Inhibition of raloxifene glucuronidation, G2, UGT1A1, G2, inhibitor 50 μM, raloxifene 50 μM, 250 μg/ml Supersomes, 1 mM UDPGA, 15 min): 79% |

More lines, main results first:

| activity at 15 min, 50 µM (UGT1A9; [4]) | activity at 15 min, 50 µM (UGT1A9; [5]) | activity at 15 min, 25 µM (UGT1A1; [4]) | activity at 15 min, 50 µM (UGT1A1; [4]) | activity at 15 min, 25 µM (UGT1A1; [5]) | activity at 15 min, 50 µM (UGT1A1; [5]) | activity at 15 min, 25 µM (UGT1A1; [6]) | activity at 15 min, 50 µM (UGT1A1; [6]) | activity at 15 min, 25 µM (UGT1A1; [7]) | activity at 15 min, 50 µM (UGT1A1; [7]) | % of control metabolism, raloxifene G1 [1] | % of control metabolism, raloxifene G2 [1] | activity at 15 min, 50 µM (UGT1A10; raloxifene G1) | activity at 15 min, 50 µM (UGT1A10; raloxifene G2) | residual metabolism (% of control), 2ME2 MG1 ([2]; inhibitor 50 μM) | residual metabolism (% of control), 2ME2 MG1 ([2]; inhibitor 100 μM) | SMILES | residual metabolism (% of control), 2ME2 MG1 ([2]; inhibitor 25 μM) | residual metabolism (% of control), E2-3-β-D-glucuronide ([3]; inhibitor 50 μM) | residual metabolism (% of control), E2-17-β-D-glucuronide ([3]; inhibitor 50 μM) | further results |
| --- | --- | --- | --- | --- | --- | --- | --- | --- | --- | --- | --- | --- | --- | --- | --- | --- | --- | --- | --- | --- |
| 48% | 45% | 39% | 23% | 43% | 25% | 39% | 23% | 43% | 25% | 34 (3) % | 40 (3) % | 54% | 51% | 63 (1) % | 47 (2) % | O=C(O[C@@H]1Cc2c(O)cc(O)cc2O[C@@H]1c1ccc(O)c(O)c1)c1cc(O)c(O)c(O)c1 [Epicatechin gallate] | 76 (4) % | 26 (1) % | 61 (4) % |  |
|  |  |  |  |  |  |  |  |  |  | 80 (3) % | 137 (9) % |  |  | 121 (7) % | 58 (3) % | CCCCCCCCOC(=O)c1cc(O)c(O)c(O)c1 [Octyl gallate] |  |  |  | activity at 15 min, 50 µM (UGT1A8; formation of glucuronide G1, % of control metabolism, raloxifene G1, UGT1A8, inhibitor 50 μM): 116%; activity at 15 min, 50 µM (UGT1A8; formation of glucuronide G2, % of control metabolism, raloxifene G2, UGT1A8, inhibitor 50 μM): 95% |
| 48% | 51% |  | 72% |  | 73% |  | 72% |  | 73% |  |  | 80% | 72% |  |  | CCCOC(=O)c1cc(O)c(O)c(O)c1 [Propyl gallate] |  |  |  |  |
